Laboratory results reported in US9879050B2, “Substituted urea depsipeptide analogs as activators of the CLPP endopeptidase” (priority 2013, dated 2018).
Converted amounts (≈) assume the structure as drawn. Like-named read-outs stand apart in the source and are kept apart here. *1 amine or outer side, *2 acyl side, *3 side chain or, on linkers, in order; H or OH if unused. Where a SMILES comes first, the peptide text is derived from it. Bridges are numbered along the chain shown (N, C = ends). [ ]: non-standard residue; d: D form. The star is where a group is joined. Phe(3,5-F2) = N[C@@H](Cc1cc(F)cc(F)c1)C(=O)O; NHPh(4-CF3) = FC(F)(F)c1ccc(N*)cc1; aThr = C[C@H](O)[C@H](N)C(=O)O; Pip = O=C(O)[C@@H]1CCCCN1; CO = O=C([*:1])[*:2]

Experiments:
S. aureus ClpP (Sa-ClpP) = biological target: T1, S. aureus ClpP (Sa-ClpP) (Staphylococcus aureus, UniProt Q2G036); test: ClpP activation, casein-BODIPY digestion assay (first described method); assay type: biochemical
T1 construct: made in house; host or cells: E. coli BL21 (DE3)
In short: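 Purified E. coli-expressed Sa-ClpP (10 μM) with 25 μg/ml BODIPY FL casein and 0-100 μM compound in 50 mM Tris pH 8, 200 mM KCl, 1 mM TCEP at 37° C. Fluorescence (ex 485/em 528 nm) read every 5 min over 45 min; velocities fit to dose-response for EC50 of 50% activation, in triplicate.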

B. subtilis ATCC 23857 = test: Minimal inhibitory concentration, microbroth dilution; assay type: cell-based; conditions: Bacillus subtilis, ATCC23857, read-out: Minimal Inhibitory Concentration B. subtilis ATCC 23857
In short: (§1)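 Compound was diluted twofold in the appropriate broth. Bacterial suspension (approx. 10^5 cfu/mL) was then added in equal volume, giving a maximum test concentration of 200 μM. After aerobic overnight incubation at 37 °C, wells were inspected visually for growth.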

E. faecails ATCC 33186 = test: as above; assay type: cell-based; conditions: Enterococcus faecalis, ATCC33186, read-out: Minimal Inhibitory Concentration E. faecails ATCC 33186
In short: as §1

S. aureus ATCC 29213 = test: as above; assay type: cell-based; conditions: Staphylococcus aureus, ATCC29213, read-out: Minimal Inhibitory Concentration S. aureus ATCC 29213
In short: as §1

S. aureus USA 300 ΔClpP = test: as above; assay type: cell-based, Staphylococcus aureus; conditions: ClpP inactivated strain
In short: as §1

[1] = Microsomal metabolic stability determination; conditions: CD-1, mouse, microsomes, pH 7.4
Method: Compounds were initially prepared by dissolving them into DMSO at a final concentration of 10 mM. NADPH regenerating solutions A and B and mouse liver microsomes (CD-1) were obtained from BD Gentest (Woburn, Mass.). Ninety-six well deep well plates were obtained from MidWest Scientific Inc (Valley Park, Mo.).
Sample preparation for microsomal stability was modified from methods of Di, L., et al., Int J Pharm. 2005 Jun. 13; 297(1-2): 110-9. A set of incubation times of 0, 15, 30, 60, 120, and 240 minutes were used. Mouse liver microsomal solutions were prepared by adding 58 μL of concentrated human or mouse liver microsomes (20 mg/mL protein concentration) to 1.756 mL of 0.1 M potassium phosphate buffer (pH 7.4) and 5 μL of 0.5 M EDTA to make a 0.6381 mg/mL (protein) microsomal solution. NADPH regenerating agent contained 113 μL of NADPH A, 23 μL of NADPH B, and 315 μL of 0.1 M potassium phosphate buffer (pH 7.4). The diluted test compound solutions (2 μL) were each added directly to a 1.79 mL of liver microsomal solution. This solution was mixed and 90 μL was transferred to 6 time points plates (each in triplicate wells). For the time 0 plate, 225 μL of cold acetonitrile with internal standard ([…] warfarin) was added to each well, followed by addition of NADPH regenerating agent (22.5 μL) and no incubation. For other five time points' plate, NADPH regenerating agent (22.5 μL) was added to each well to initiate the reaction. The plates were incubated at 37° C. for the required time, followed by quenching of the reaction by adding 225 μL of cold acetonitrile with internal standard (4 μg/ml warfarin). All of the plates were sealed and mixed well at 600 rpm for 10 minutes followed by centrifugation at 4000 rpm for 20 minutes. The supernatants (120 μL) were transferred to analytical plates for analysis by LCMS. LCMS conditions were described in the materials and instrumentation section above. The metabolic stability is evaluated via the half-life from least-squares fit of the multiple time points based on first-order kinetics.

S. pneumoniae R6 = test: Minimal inhibitory concentration, microbroth dilution; assay type: cell-based
In short: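 Twofold serial dilutions in broth per CLSI M7-A7 microbroth dilution, incubated aerobically overnight at 37° C. MIC read visually as lowest concentration preventing bacterial growth.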

[2] = first described ClpP activation assay (**), 10 μM saClpP, 25 μg/ml BODIPY FL casein, 37° C., read-out: ClpP Activation EC50
[3] = Streptococcus pneumoniae, R6, read-out: Minimal Inhibitory Concentration S. pneumoniae R6

T1 sequence (Q2G036 whole entry): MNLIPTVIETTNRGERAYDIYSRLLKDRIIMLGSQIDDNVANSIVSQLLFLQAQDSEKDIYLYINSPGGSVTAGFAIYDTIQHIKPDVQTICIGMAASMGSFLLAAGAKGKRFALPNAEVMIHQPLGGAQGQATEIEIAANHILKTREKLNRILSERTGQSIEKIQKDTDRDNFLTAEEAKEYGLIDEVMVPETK

## Cc1ccc(NC(=O)N[C@@H](Cc2cc(F)cc(F)c2)C(=O)N[C@@H]2C(=O)N3CCC[C@H]3C(=O)N3CCCC[C@H]3C(=O)N[C@@H](C)C(=O)N3CCC[C@H]3C(=O)O[C@H]2C)cc1 [Compound 15, (S)-3-(3,5-Difluorophenyl)-N-((6S,8aS,14aS,20S,21 S,23aS)-6,21-Dimethyl-5,8,14,19,23-Pentaoxooctadecahydro-1H,5H,14H,19H-Pyrido[2,1-I]Dipyrrolo[2,1-C:2′,1′-L][1]Oxa[4,7,10,13]Tetraazacyclohexadecin-20-Yl)-2-(3-(P-Tolyl)Ureido)Propanamide]
S. aureus ClpP (Sa-ClpP); [2]
  EC50: 4.6 ± 0.9 µM
B. subtilis ATCC 23857
  MIC: < 0.1 µM
E. faecails ATCC 33186
  MIC: 0.3 µM (≈ 0.238 µg/mL)
S. aureus ATCC 29213
  MIC: 0.6 µM (≈ 0.476 µg/mL)
S. aureus USA 300 ΔClpP
  Minimal Inhibitory Concentration S. aureus USA 300 ΔClpP: 100 µM
[1]
  half-life: 18 min
S. pneumoniae R6; [3]
  MIC: 0.3 µM (≈ 0.238 µg/mL)

## C[C@@H]1NC(=O)[C@@H]2CCCCN2C(=O)[C@@H]2CCCN2C(=O)[C@@H](NC(=O)[C@H](Cc2cc(F)cc(F)c2)NC(=O)Nc2ccc(C(F)(F)F)cc2)[C@H](C)OC(=O)[C@@H]2CCCN2C1=O [Compound 16, (S)-3-(3,5-Difluorophenyl)-N-((6S,8aS,14aS,20S,21 S,23aS)-6,21-Dimethyl-5,8,14,19,23-Pentaoxooctadecahydro-1H,5H,14H,19H-Pyrido[2,1-I]Dipyrrolo[2,1-C:2′,1′-L][1]Oxa[4,7,10,13]Tetraazacyclohexadecin-20-Yl)-2-(3-(4-(Trifluoromethyl)Phenyl)Ureido)Propanamide] ({NHPh(4-CF3)-CO}-[Phe(3,5-F2)][aThr]P[Pip]AP; ester 2-C)
S. aureus ClpP (Sa-ClpP); [2]
  EC50: 4.4 ± 0.7 µM
B. subtilis ATCC 23857
  MIC: 0.4 µM (≈ 0.339 µg/mL)
E. faecails ATCC 33186
  MIC: < 0.1 µM
S. aureus ATCC 29213
  MIC: 0.4 µM (≈ 0.339 µg/mL)
S. aureus USA 300 ΔClpP
  Minimal Inhibitory Concentration S. aureus USA 300 ΔClpP: 3.1 µM
[1]
  half-life: 42 min
S. pneumoniae R6; [3]
  MIC: 0.8 µM (≈ 0.678 µg/mL)

## Cc1ccc(NC(=O)N[C@@H](Cc2cc(F)cc(F)c2)C(=O)N[C@@H]2C(=O)N3CCC[C@H]3C(=O)N3CCCC[C@H]3C(=O)N[C@@H](C)C(=O)N3C[C@@H](C)C[C@H]3C(=O)O[C@H]2C)cc1 [Compound 18, (S)-3-(3,5-Difluorophenyl)-2-(3-(P-Tolyl)Ureido)-N-((2R,6S,8aS,14aS,20S,21S,23aS)-2,6,21-Trimethyl-5,8,14,19,23-Pentaoxooctadecahydro-1H,5H,14H,19H-Pyrido[2,1-I]Dipyrrolo[2,1-C:2′,1′-L][1]Oxa[4,7,10,13]Tetraazacyclohexadecin-20-Yl)Propanamide]
S. aureus ClpP (Sa-ClpP); [2]
  EC50: 7 ± 0.9 µM
B. subtilis ATCC 23857
  MIC: < 0.1 µM
E. faecails ATCC 33186
  MIC: 0.8 µM (≈ 0.646 µg/mL)
S. aureus ATCC 29213
  MIC: 0.1 µM (≈ 0.0808 µg/mL)
S. aureus USA 300 ΔClpP
  Minimal Inhibitory Concentration S. aureus USA 300 ΔClpP: 100 µM
[1]
  half-life: 60 ± 6 min
S. pneumoniae R6; [3]
  MIC: < 0.1 µM

## C[C@H]1C[C@H]2C(=O)O[C@@H](C)[C@H](NC(=O)[C@H](Cc3cc(F)cc(F)c3)NC(=O)Nc3ccc(C(F)(F)F)cc3)C(=O)N3CCC[C@H]3C(=O)N3CCCC[C@H]3C(=O)N[C@@H](C)C(=O)N2C1 [Compound 19, (S)-3-(3,5-Difluorophenyl)-2-(3-(4-(Trifluoromethyl)Phenyl)Ureido)-N-((2R,6S,8aS,14aS,20S,21S,23aS)-2,6,21-Trimethyl-5,8,14,19,23-Pentaoxooctadecahydro-1H,5H,14H,19H-Pyrido[2,1-I]Dipyrrolo[2,1-C:2′,1′-L][1]Oxa[4,7,10,13]Tetraazacyclohexadecin-20-Yl)Propanamide]
S. aureus ClpP (Sa-ClpP); [2]
  EC50: 3.2 ± 0.1 µM
B. subtilis ATCC 23857
  MIC: < 0.1 µM
E. faecails ATCC 33186
  MIC: 0.39 µM (≈ 0.336 µg/mL)
S. aureus ATCC 29213
  MIC: 0.1 µM (≈ 0.0862 µg/mL)
S. aureus USA 300 ΔClpP
  Minimal Inhibitory Concentration S. aureus USA 300 ΔClpP: 6.2 µM
[1]
  half-life: 30 min
S. pneumoniae R6; [3]
  MIC: 0.8 µM (≈ 0.689 µg/mL)

## C[C@H]1C[C@H]2C(=O)O[C@@H](C)[C@H](NC(=O)[C@H](Cc3cc(F)cc(F)c3)NC(=O)Nc3ccc4c(c3)OCO4)C(=O)N3CCC[C@H]3C(=O)N3CCCC[C@H]3C(=O)N[C@@H](C)C(=O)N2C1 [Compound 20, (S)-2-(3-(Benzo[D][1,3]Dioxol-5-Yl)Ureido)-3-(3,5-Difluorophenyl)-N-((2R,6S,8aS,14aS,20S,21 S,23aS)-2,6,21-Trimethyl-5,8,14,19,23-Pentaoxooctadecahydro-1H,5H,14H,19H-Pyrido[2,1-I]Dipyrrolo[2,1-C:2′,1′-L][1]Oxa[4,7,10,13]Tetraazacyclohexadecin-20-Yl)Propanamide]
S. aureus ClpP (Sa-ClpP)
  EC50: 1.6 ± 0.3 µM
S. aureus USA 300 ΔClpP
  Minimal Inhibitory Concentration S. aureus USA 300 ΔClpP: 200 µM
[1]
  half-life: 414 ± 78 min
S. pneumoniae R6; Streptococcus pneumoniae, R6; read-out: Minimal Inhibitory Concentration S. pneumoniae R6
  MIC: < 0.1 µM

## Cc1ccc(NC(=O)N[C@@H](Cc2ccccc2)C(=O)N[C@H]2COC(=O)[C@@H]3C[C@@H](C)CN3C(=O)[C@H](C)NC(=O)[C@@H]3CCCCN3C(=O)[C@@H]3CCCN3C2=O)cc1 [Compound 23, (S)—N-((2R,6S,8aS,14aS,20S,23aS)-2,6-Dimethyl-5,8,14,19,23-Pentaoxooctadecahydro-1H,5H,14H,19H-Pyrido[2,1-I]Dipyrrolo[2,1-C:2′,1′-L][1]Oxa[4,7,10,13]Tetraazacyclohexadecin-20-Yl)-3-Phenyl-2-(3-(P-Tolyl)Ureido)Propanamide]
S. aureus ClpP (Sa-ClpP); [2]
  EC50: 2.6 ± 0.4 µM
B. subtilis ATCC 23857
  MIC: < 0.2 µM
E. faecails ATCC 33186
  MIC: < 0.2 µM
S. aureus ATCC 29213
  MIC: 0.4 µM (≈ 0.303 µg/mL)
[1]
  half-life: 178 ± 18 min
S. pneumoniae R6; [3]
  MIC: < 0.2 µM
